Results from paper PMC11312933, “Mystery of the Passerini Reaction for the Synthesis of the Antimicrobial Peptidomimetics against Nosocomial Pathogenic Bacteria” (International Journal of Molecular Sciences, 2024).
Values after ≈ are worked out from the molar mass of the structure shown.

Experiments:
MTT cytotoxicity assay = details: mouse
Method: (§1) The cytotoxic effects of the tested peptidomimetics 1–16 on BALB/c3T3 mouse fibroblast cells were determined using the MTT assay after 24 h of incubation at five different concentrations (1, 2, 4, 6, and 8 µg/mL). The MTT test is based on the ability of the mitochondrial dehydrogenase enzymes to convert an orange, water-soluble tetrazolium salt (3-(4,5-dimethylthiazol-2-yl)-2,5-diphenyltetrazolium bromide) into an insoluble formazan, which is a dark blue product of the above reaction. After dissolving the formazan crystals in DMSO or isopropanol, a coloured solution was formed, the intensity of which is measured spectrophotometrically within the wavelength range of 492–570 nm. The amount of coloured reduced MTT is proportional to the oxidative activity of the cell’s mitochondria and, under strictly defined experimental conditions, to the number of metabolically active (living) cells in the population. The MTT test can also be used to determine cell viability in populations of cells that no longer divide but are metabolically active.

S. aureus = details: against S. aureus; cited from earlier work
[1] = tested on: E. coli (K12 (ATCC 25404), R2 (ATCC 39544), R3 (ATCC 11775), R4 (ATCC 39543)), A. baumannii (ATCC 17978), P. aeruginosa (ATCC 15442), E. cloacae (ATCC 49141) …; test: Minimum inhibitory concentration (MIC), microtiter plate method with resazurin; type: cell-based, S. aureus; details: Gram-negative and Gram-positive bacteria
Source text: The reference bacterial strains of E.coli (K12 ATCC 25404, R2 ATCC 39544, R3 ATCC 11775, and R4 ATCC 39543) and Staphylococcus aureus strain (ATCC 23235), as well as Acinetobacter baumannii (ATCC 17978), Pseudomonas aeruginosa (ATCC 15442), and Enterobacter cloacae (ATCC 49141) were obtained from LGC Standards U.K. and were used according to the recommendation of ISO 11133 [30]. These strains were used to test the antibacterial activity of the analysed compounds by determining the minimum inhibitory concentration (MIC) and minimum bactericidal concentration (MBC), as described in [8, 9, 26, 27, 28, 29, 30, 31]. The results are shown in Figures S33 and S34 in the Supplementary Materials.
MIC and MBC were estimated using a microtiter plate method with sterile 48- or 96-well plates, which is precisely described in [9]. Briefly, MIC and MBC, defined as the lowest concentration of a bacteriostatic agent, were determined. Briefly, 50 μL of the analysed compounds and the appropriate bacterial strains were added to the first row of the plate. Then, 25 μL of sterile Tryptone Soya Broth (TSB) medium was added to the other wells, and serial dilutions were performed. Subsequently, 200 μL of inoculated TSB medium containing resazurin (0.02 mg/mL) as an indicator was added to all wells. TSB medium was inoculated with 10^6 colony-forming units (CFU)/mL (approximately 0.5 McFarland units) of the bacterial strains. The plates were incubated at 30 °C for 24 h. Changes in colour from blue to pink or yellowish with turbidity were considered positive, and the lowest concentration at which no visible change in colour occurred was recorded as the MIC, according to Kowalczyk et al.. Each experiment (both MIC and MBC) was repeated at least three times.

[2] = tested on: S. aureus strain (ATCC 23235); type: cell-based, Staphylococcus aureus; details: S. aureus (ATCC 23235)
[3] = tested on: BALB/c3T3 mouse embryonic fibroblast cell line; test: MTT cytotoxicity assay
Method: as §1

CC(=O)Oc1ccc2c(C(F)(F)F)cc(=O)oc2c1C(OC(=O)Cc1ccccc1)C(=O)NCc1ccc(F)cc1 (stereo not drawn)
melting point: 51 to 55 °C

Cc1onc(-c2ccccc2Cl)c1C(=O)N[C@@H]1C(=O)N2[C@@H]1SC(C)(C)[C@@H]2C(=O)O [cloxacillin, reference compound]
viability (MTT cytotoxicity assay; BALB/c3T3 mouse embryonic fibroblast cells): 85 to 89.9%

Cc1cc(=O)oc2c(C)c(OCc3ccc(-c4ccccc4)cc3)ccc12 [Compound B]
IC50 (S. aureus): 3 µM

CC(=O)Oc1cc(Br)ccc1C(OC(=O)Cc1ccccc1)C(=O)NCc1ccccc1 (stereo not drawn)
melting point: 122 to 124 °C

CC(=O)Oc1ccccc1C(OC(=O)Cc1ccccc1)C(=O)NCc1ccccc1 (stereo not drawn) [Compound 15, 1-(2-Acetoxyphenyl)-2-(benzylamino)-2-oxoethyl 2-phenylacetate]
viability at 24 h, 2 µg/mL (MTT cytotoxicity assay): 66.5%

COc1ccc(CNC(=O)C(OC(=O)Cc2ccccc2)c2c(OC(C)=O)ccc3ccc(=O)oc23)cc1 (stereo not drawn) [Compound 4, 1-(7-Acetoxy-2-oxo-2H-chromen-8-yl)-2-((4-methoxybenzyl)amino)-2-oxoethyl 2-phenylacetate]
melting point: 57 to 59 °C | spectrum of antibacterial activity [1]: broad-spectrum activity

COc1ccc(CNC(=O)C(O)c2ccc(Br)cc2O)cc1 (stereo not drawn)
melting point: 96 to 100 °C

CC(=O)Oc1ccc2ccc(=O)oc2c1C(OC(=O)Cc1ccccc1)C(=O)NCc1ccc(F)cc1 (stereo not drawn)
melting point: 61 to 63 °C

CC(=O)Oc1ccc2c(C)cc(=O)oc2c1C(OC(=O)Cc1ccccc1)C(=O)NCc1ccc(F)cc1 (stereo not drawn) [Compound 6, 1-(7-Acetoxy-4-methyl-2-oxo-2H-chromen-8-yl)-2-((4-fluorobenzyl)amino)-2-oxoethyl 2-phenylacetate]
melting point: 56 to 59 °C | viability at 24 h, 2 µg/mL (MTT cytotoxicity assay): 87%

COc1ccc(CNC(=O)C(OC(=O)Cc2ccccc2)c2c(OC(C)=O)ccc3c(C(F)(F)F)cc(=O)oc23)cc1 (stereo not drawn) [Compound 9, 1-(7-Acetoxy-2-oxo-4-(trifluoromethyl)-2H-chromen-8-yl)-2-((4-methoxybenzyl)amino)-2-oxoethyl 2-phenylacetate]
activity against S. aureus [2]: very potent activity | melting point: 54 to 58 °C | spectrum of antibacterial activity [1]: broad-spectrum activity

1-(7-Acetoxy-4-methyl-2-oxo-2H-chromen-8-yl)-2-((4-fluorobenzyl)amino)-2-oxoethyl 2-phenylacetate [Compound 1]
IC50 for fibroblasts ([3]; after 24 h of incubation): 4.26 µg/mL | spectrum of antibacterial activity [1]: broad-spectrum activity

COc1ccc(CNC(=O)C(OC(=O)Cc2ccccc2)c2ccc(Br)cc2OC(C)=O)cc1 (stereo not drawn)
melting point: 107 to 108 °C

Cc1cc(=O)oc2cc(OCc3ccc(-c4ccccc4)cc3)ccc12 [A]
IC50 (S. aureus): 9.7 µM

COc1ccc(CNC(=O)C(OC(=O)Cc2ccccc2)c2ccccc2OC(C)=O)cc1 (stereo not drawn) [Compound 14, 1-(2-Acetoxyphenyl)-2-((4-methoxybenzyl)amino)-2-oxoethyl 2-phenylacetate]
IC50 ([3]; Mus musculus, BALB/c3T3, 24 h, read-out: IC50 for fibroblasts): 7.22 µg/mL (≈ 16.1 µM)

CC(=O)Oc1ccc2c(C(F)(F)F)cc(=O)oc2c1C(OC(=O)Cc1ccccc1)C(=O)NCc1ccccc1 (stereo not drawn)
melting point: 54 to 57 °C

CC(=O)Oc1ccc2ccc(=O)oc2c1C(OC(=O)Cc1ccccc1)C(=O)NCc1ccccc1 (stereo not drawn) [Compound 3, 1-(7-Acetoxy-2-oxo-2H-chromen-8-yl)-2-(benzylamino)-2-oxoethyl 2-phenylacetate]
melting point: 64 to 66 °C | spectrum of antibacterial activity [1]: broad-spectrum activity

COc1ccc(CNC(=O)C(OC(=O)Cc2ccccc2)c2c(OC(C)=O)ccc3c(C)cc(=O)oc23)cc1 (stereo not drawn) [Compound 2, 1-(7-Acetoxy-4-methyl-2-oxo-2H-chromen-8-yl)-2-((4-methoxybenzyl)amino)-2-oxoethyl 2-phenylacetate]
melting point: 66 to 68 °C | spectrum of antibacterial activity [1]: broad-spectrum activity
